According to PubChem BioAssay AID1963977 (Molecular Pharmacology Branch, DTP, NCI, 2024):

Tested on: 624824-186-R-J3-PDC multicell spheroids, viability
Experiment: Anticancer human tumor 624824-186-R-J3-PDC patient-derived colon adenocarcinoma cell line growth inhibition [PI3K]
Details: for IC50: curve of first compound; for viability, T/C: stronger effect = lower value
Procedure, shortened: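 Viability of mixed-cell spheroids was determined after exposure to pairwise combinations, one partner being inavolisib, alpelisib, duvelisib or copanlisib. Highest tested concentration matched clinical Cmax where known and 10 microM where not, descending in half-log steps.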

[1] = second compound 0.0316 µM, first compound 0.0316 µM
[2] = second compound 0.0316 µM, first compound 0.1 µM
[3] = second compound 0.1 µM, first compound 0.0316 µM
[4] = second compound 0.1 µM, first compound 0.1 µM
[5] = second compound 0.316 µM, first compound 0.0316 µM
[6] = second compound 0.316 µM, first compound 0.1 µM
[7] = second compound 1 µM, first compound 0.0316 µM
[8] = second compound 1 µM, first compound 0.1 µM
[9] = second compound 3.16 µM, first compound 0.0316 µM
[10] = second compound 3.16 µM, first compound 0.1 µM
[11] = second compound 10 µM, first compound 0.0316 µM
[12] = second compound 10 µM, first compound 0.1 µM
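Also: spheroids exposed to agents for seven days before luminescence read.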
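For viability, T/C in this document: luminescent signal used as a stand-in for spheroid viability; percent viability relative to DMSO vehicle control wells taken as 100%.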

Work on `CC(=O)c1c(C)c2cnc(Nc3ccc(N4CCNCC4)cn3)nc2n(C2CCCC2)c1=O` + Cc1nc(NC(=O)N2CCCC2C(N)=O)sc1-c1ccnc(C(C)(C)C(F)(F)F)c1 yielded an IC50 (second compound 0.0316 µM) greater than 100 nM, an IC50 (second compound 0.1 µM) greater than 100 nM and an IC50 (second compound 0.316 µM) greater than 100 nM. For the same compound, the IC50 (second compound 1 µM) was greater than 100 nM, the IC50 (second compound 3.16 µM) was greater than 100 nM and the IC50 (second compound 10 µM) was 63.9 nM. The viability, T/C (second compound 0.0316 µM, first compound 0.000316 µM) was 109%, the viability, T/C (second compound 0.0316 µM, first compound 0.001 µM) was 102% and the viability, T/C (second compound 0.0316 µM, first compound 0.00316 µM) was 119%. It also gave a viability, T/C (second compound 0.0316 µM, first compound 0.01 µM) of 99.5%, a viability, T/C [1] of 112% and a viability, T/C [2] of 101%. For the same compound, the viability, T/C (second compound 0.1 µM, first compound 0.000316 µM) was 97.3%, the viability, T/C (second compound 0.1 µM, first compound 0.001 µM) was 104% and the viability, T/C (second compound 0.1 µM, first compound 0.00316 µM) was 113%. The viability, T/C (second compound 0.1 µM, first compound 0.01 µM) was 103%, the viability, T/C [3] was 107% and the viability, T/C [4] was 106%. For the same compound, the viability, T/C (second compound 0.316 µM, first compound 0.000316 µM) was 112%, the viability, T/C (second compound 0.316 µM, first compound 0.001 µM) was 107% and the viability, T/C (second compound 0.316 µM, first compound 0.00316 µM) was 114%. For the same compound, the viability, T/C (second compound 0.316 µM, first compound 0.01 µM) was 110%, the viability, T/C [5] was 104% and the viability, T/C [6] was 109%. The viability, T/C (second compound 1 µM, first compound 0.000316 µM) was 106%, the viability, T/C (second compound 1 µM, first compound 0.001 µM) was 99.1% and the viability, T/C (second compound 1 µM, first compound 0.00316 µM) was 109%. The viability, T/C (second compound 1 µM, first compound 0.01 µM) was 94.8%, the viability, T/C [7] was 101% and the viability, T/C [8] was 93.4%. It also gave a viability, T/C (second compound 3.16 µM, first compound 0.000316 µM) of 85.7%, a viability, T/C (second compound 3.16 µM, first compound 0.001 µM) of 95.7% and a viability, T/C (second compound 3.16 µM, first compound 0.00316 µM) of 97.8%. It also gave a viability, T/C (second compound 3.16 µM, first compound 0.01 µM) of 85.1%, a viability, T/C [9] of 85.3% and a viability, T/C [10] of 62.9%. It also gave a viability, T/C (second compound 10 µM, first compound 0.000316 µM) of 71.8%, a viability, T/C (second compound 10 µM, first compound 0.001 µM) of 73.1% and a viability, T/C (second compound 10 µM, first compound 0.00316 µM) of 76%. It also gave a viability, T/C (second compound 10 µM, first compound 0.01 µM) of 64.6%, a viability, T/C [11] of 59.7% and a viability, T/C [12] of 43.9%.

For `CNC(=O)c1ccc(N2C(=S)N(c3ccc(C#N)c(C(F)(F)F)c3)C(=O)C2(C)C)cc1F` + Cc1nc(NC(=O)N2CCCC2C(N)=O)sc1-c1ccnc(C(C)(C)C(F)(F)F)c1, the IC50 (second compound 0.0316 µM) was greater than 10000 nM, the IC50 (second compound 0.1 µM) was greater than 10000 nM and the IC50 (second compound 0.316 µM) was greater than 10000 nM. It also gave an IC50 (second compound 1 µM) greater than 10000 nM, an IC50 (second compound 3.16 µM) greater than 10000 nM and an IC50 (second compound 10 µM) greater than 10000 nM. It also gave a viability, T/C [1] of 104%, a viability, T/C [2] of 94.4% and a viability, T/C (second compound 0.0316 µM, first compound 0.316 µM) of 101%. For the same compound, the viability, T/C (second compound 0.0316 µM, first compound 1 µM) was 102%, the viability, T/C (second compound 0.0316 µM, first compound 3.16 µM) was 107% and the viability, T/C (second compound 0.0316 µM, first compound 10 µM) was 113%. The viability, T/C [3] was 96.9%, the viability, T/C [4] was 100% and the viability, T/C (second compound 0.1 µM, first compound 0.316 µM) was 109%. For the same compound, the viability, T/C (second compound 0.1 µM, first compound 1 µM) was 98.4%, the viability, T/C (second compound 0.1 µM, first compound 3.16 µM) was 104% and the viability, T/C (second compound 0.1 µM, first compound 10 µM) was 104%. It also gave a viability, T/C [5] of 107%, a viability, T/C [6] of 101% and a viability, T/C (second compound 0.316 µM, first compound 0.316 µM) of 117%. It also gave a viability, T/C (second compound 0.316 µM, first compound 1 µM) of 99.1%, a viability, T/C (second compound 0.316 µM, first compound 3.16 µM) of 113% and a viability, T/C (second compound 0.316 µM, first compound 10 µM) of 93%. For the same compound, the viability, T/C [7] was 100%, the viability, T/C [8] was 96.3% and the viability, T/C (second compound 1 µM, first compound 0.316 µM) was 105%. For the same compound, the viability, T/C (second compound 1 µM, first compound 1 µM) was 101%, the viability, T/C (second compound 1 µM, first compound 3.16 µM) was 104% and the viability, T/C (second compound 1 µM, first compound 10 µM) was 95%. The viability, T/C [9] was 91.1%, the viability, T/C [10] was 89.4% and the viability, T/C (second compound 3.16 µM, first compound 0.316 µM) was 83.9%. For the same compound, the viability, T/C (second compound 3.16 µM, first compound 1 µM) was 77.7%, the viability, T/C (second compound 3.16 µM, first compound 3.16 µM) was 88% and the viability, T/C (second compound 3.16 µM, first compound 10 µM) was 85.5%. For the same compound, the viability, T/C [11] was 74.3%, the viability, T/C [12] was 65.3% and the viability, T/C (second compound 10 µM, first compound 0.316 µM) was 69.4%. For the same compound, the viability, T/C (second compound 10 µM, first compound 1 µM) was 67.8%, the viability, T/C (second compound 10 µM, first compound 3.16 µM) was 73.8% and the viability, T/C (second compound 10 µM, first compound 10 µM) was 70.1%.

With `Cn1cnc2c(F)c(Nc3ccc(Br)cc3Cl)c(C(=O)NOCCO)cc21` + Cc1nc(NC(=O)N2CCCC2C(N)=O)sc1-c1ccnc(C(C)(C)C(F)(F)F)c1 the IC50 (second compound 0.0316 µM) was 1890 nM, the IC50 (second compound 0.1 µM) was 884 nM and the IC50 (second compound 0.316 µM) was 515 nM. For the same compound, the IC50 (second compound 1 µM) was 207 nM, the IC50 (second compound 3.16 µM) was 48.4 nM and the IC50 (second compound 10 µM) was 14.9 nM. For the same compound, the viability, T/C (second compound 0.0316 µM, first compound 0.00949 µM) was 116%, the viability, T/C (second compound 0.0316 µM, first compound 0.03 µM) was 104% and the viability, T/C (second compound 0.0316 µM, first compound 0.0949 µM) was 89%. The viability, T/C (second compound 0.0316 µM, first compound 0.3 µM) was 82.1%, the viability, T/C (second compound 0.0316 µM, first compound 0.949 µM) was 62.8% and the viability, T/C (second compound 0.0316 µM, first compound 3 µM) was 40.5%. For the same compound, the viability, T/C (second compound 0.1 µM, first compound 0.00949 µM) was 105%, the viability, T/C (second compound 0.1 µM, first compound 0.03 µM) was 98.1% and the viability, T/C (second compound 0.1 µM, first compound 0.0949 µM) was 94.6%. It also gave a viability, T/C (second compound 0.1 µM, first compound 0.3 µM) of 68%, a viability, T/C (second compound 0.1 µM, first compound 0.949 µM) of 50.9% and a viability, T/C (second compound 0.1 µM, first compound 3 µM) of 31.6%. For the same compound, the viability, T/C (second compound 0.316 µM, first compound 0.00949 µM) was 114%, the viability, T/C (second compound 0.316 µM, first compound 0.03 µM) was 98.2% and the viability, T/C (second compound 0.316 µM, first compound 0.0949 µM) was 85.5%. For the same compound, the viability, T/C (second compound 0.316 µM, first compound 0.3 µM) was 59.9%, the viability, T/C (second compound 0.316 µM, first compound 0.949 µM) was 37.7% and the viability, T/C (second compound 0.316 µM, first compound 3 µM) was 22.4%. The viability, T/C (second compound 1 µM, first compound 0.00949 µM) was 97.3%, the viability, T/C (second compound 1 µM, first compound 0.03 µM) was 91.5% and the viability, T/C (second compound 1 µM, first compound 0.0949 µM) was 67.7%. For the same compound, the viability, T/C (second compound 1 µM, first compound 0.3 µM) was 40.1%, the viability, T/C (second compound 1 µM, first compound 0.949 µM) was 24.9% and the viability, T/C (second compound 1 µM, first compound 3 µM) was 12.5%. The viability, T/C (second compound 3.16 µM, first compound 0.00949 µM) was 73.8%, the viability, T/C (second compound 3.16 µM, first compound 0.03 µM) was 60.4% and the viability, T/C (second compound 3.16 µM, first compound 0.0949 µM) was 36.2%. The viability, T/C (second compound 3.16 µM, first compound 0.3 µM) was 22.6%, the viability, T/C (second compound 3.16 µM, first compound 0.949 µM) was 17.3% and the viability, T/C (second compound 3.16 µM, first compound 3 µM) was 6.56%. The viability, T/C (second compound 10 µM, first compound 0.00949 µM) was 56%, the viability, T/C (second compound 10 µM, first compound 0.03 µM) was 42.2% and the viability, T/C (second compound 10 µM, first compound 0.0949 µM) was 21.4%. The viability, T/C (second compound 10 µM, first compound 0.3 µM) was 16%, the viability, T/C (second compound 10 µM, first compound 0.949 µM) was 5.42% and the viability, T/C (second compound 10 µM, first compound 3 µM) was 1.91%.
